Experimental findings from patent US20140031227A1, “HERBICIDAL COMPOSITIONS COMPRISING 4-AMINO-3-CHLORO-5-FLUORO-6-(4-CHLORO-2-FLUORO-3-METHOXYPHENYL) PYRIDINE-2-CARBOXYLIC ACID OR A DERIVATIVE THEREOF AND GLYPHOSATE OR GLUFOSINATE” (DOW AGROSCIENCES LLC, priority 2012, published 2014) are described below.

Structures can show the parent of a compound that is named as a salt.

What all share (type): in vivo
In assay [1] the test system is IPOHE (Ipomoea hederacea Jacq., ivyleaf morningglory). As to the kind of experiment: Example I postemergence foliar-applied mixtures, direct seeded rice weeds, greenhouse: IPOHE. Conditions: for Visual Weed Control (%) - 21 DAA IPOHE Obs: glyphosate IPA salt (Rodeo) alone. As for the experimental part:
(§1) Seeds or nutlets of the desired test plant species were planted in a soil matrix prepared by mixing a loam or sandy loam soil (e.g., 28.6 percent silt, 18.8 percent clay, and 52.6 percent sand, with a pH of about 5.8 and an organic matter content of about 1.8 percent) and calcareous grit in an 80 to 20 ratio. The soil matrix was contained in plastic pots with a volume of 1 quart and a surface area of 83.6 square centimeters (cm^2). […] The plants were grown for 8-22 days in a greenhouse with an approximate 14 hr photoperiod which was maintained at about 29° C. during the day and 26° C. during the night. Nutrients (Peters Excel® 15-5-15 5-Ca 2-Mg and iron chelate) were applied in the irrigation solution as needed and water was added on a regular basis. Supplemental lighting was provided with overhead metal halide 1000-Watt lamps as necessary. The plants were employed for testing when they reached the first through fourth true leaf stage.
(§2) Treatments consisted of the acid or esters of 4-amino-3-chloro-5-fluoro-6-(4-chloro-2-fluoro-3-methoxy-phenyl)pyridine-2-carboxylic acid (Compound A), each formulated as an SC (suspension concentrate), and various herbicidal components alone and in combination. Forms of compound A were applied on an acid equivalent basis.
(§3) For treatments comprised of formulated compounds, measured amounts of compounds were placed individually in 25 mL glass vials and diluted in a volume of 1.25% (v/v) Agri-Dex® crop oil concentrated to obtain 12× stock solutions. […] Application solutions were prepared by adding an appropriate amount of each stock solution (e.g., 1 mL) and diluted to the appropriate final concentrations with the addition of 10 mL of an aqueous mixture of 1.25% (v/v) crop oil concentrate so that the final spray solutions contained 1.25+/−0.05% (v/v) crop oil concentrate.
(§4) All stock solutions and applications solutions were visually inspected for compound compatibility prior to application. Spray solutions were applied to the plant material with an overhead Mandel track sprayer equipped with a 8002E nozzles calibrated to deliver 187 L/ha over an application area of 0.503 m^2 at a spray height of 18 to 20 inches (46 to 50 cm) above average plant canopy height. Control plants were sprayed in the same manner with the solvent blank.
(§5) The treated plants and control plants were placed in a greenhouse as described above and watered by sub-irrigation to prevent wash-off of the test compounds. After approximately 3 weeks, the condition of the test plants as compared with that of the untreated plants was determined visually and scored on a scale of 0 to 100 percent where 0 corresponds to no injury or growth inhibition and 100 corresponds to complete kill.
(§6) Colby's equation was used to determine the herbicidal effects expected from the mixtures (Colby, S. R. 1967. Calculation of the synergistic and antagonistic response of herbicide combinations. Weeds 15:20-22.).

The subject of assay [2] is ECHCG (Echinochloa crusgalli (L.) Beauv., barnyardgrass). As to the kind of experiment: Example I postemergence foliar-applied mixtures, direct seeded rice weeds, greenhouse: ECHCG. Conditions: for Visual Weed Control (%) - 21 DAA ECHCG Obs: glyphosate IPA salt (Glyphomax) alone. As for the experimental part:
as §1, §2, §3, §4, §5, §6

Assay [3] has as its system LEFCH (Leptochloa chinensis (L.) Nees, Chinese sprangletop). In words: Example I postemergence foliar-applied mixtures, direct seeded rice weeds, greenhouse: LEFCH. As to the method: as §1, §2, §3, §4, §5, §6
Assay [4] deals with ECHCO (Echinochloa colona (L.) Link, junglerice). As to the kind of experiment: Example I postemergence foliar-applied mixtures, direct seeded rice weeds, greenhouse: ECHCO. As for the experimental part:
as §1, §2, §3, §4, §5, §6

Assay [5] concerns SCPMA (Schoenoplectus maritimus (L.) Lye or Bolboschoenus maritimus (L.) Palla, sea clubrush). As to the kind of experiment: Example II in-water applied mixtures, transplanted paddy rice weeds, greenhouse: SCPMA. Conditions: glyphosate IPA salt (Rodeo) alone. As for the experimental part:
Weed seeds or nutlets of the desired test plant species were planted in puddled soil (mud) prepared by mixing a shredded, non-sterilized mineral soil (50.5 percent silt, 25.5 percent clay, and 24 percent sand, with a pH of about 7.6 and an organic matter content of about 2.9 percent) and water at a 1:1 volumetric ratio. The prepared mud was dispensed in 365 mL aliquots into 16-ounce (oz.) non-perforated plastic pots with a surface area of 86.59 square centimeters (cm^2) leaving a headspace of 3 centimeters (cm) in each pot. Mud was allowed to dry overnight prior to planting or transplanting. Rice seeds were planted in Sun Gro MetroMix® 306 planting mixture, which typically has a pH of 6.0 to 6.8 and an organic matter content of about 30 percent, in plastic plug trays. Seedlings at the second or third leaf stage of growth were transplanted into 840 mL of mud contained in 32-oz. non-perforated plastic pots with a surface area of 86.59 cm^2 4 days prior to herbicide application. The paddy was created by filling the headspace of the pots with 2.5 to 3 cm of water. […] The plants were grown for 4-22 days in a greenhouse with an approximate 14 hr photoperiod which was maintained at about 29′C during the day and 26° C. during the night. Nutrients were added as Osmocote® (19:6:12, N:P:K+minor nutrients) at 2 g per 16-oz. pot and 4 g per 32-oz. pot. Water was added on a regular basis to maintain the paddy flood, and supplemental lighting was provided with overhead metal halide 1000-Watt lamps as necessary. The plants were employed for testing when they reached the first through fourth true leaf stage.
Treatments consisted of the acid or esters of 4-amino-3-chloro-5-fluoro-6-(4-chloro-2-fluoro-3-methoxy-phenyl)pyridine-2-carboxylic acid (compound A) each formulated as an SC (suspension concentrate) and various herbicidal components alone and in combination. Forms of compound A were applied on an acid equivalent basis.
For formulated compounds, a measured amount was placed in an individual 100 or 200 mL glass vial and was dissolved in a volume of 1.25% (v/v) Agri-Dex® crop oil concentrate to obtain application solutions.
Applications were made by injecting with a pipetter appropriate amounts of the application solutions, individually and sequentially, into the aqueous layer of the paddy. Control plants were treated in the same manner with the solvent blank. Applications were made so that all treated plant material received the same concentrations of acetone and crop oil concentrate.
The treated plants and control plants were placed in a greenhouse as described above and water was added as needed to maintain a paddy flood. After approximately 3 weeks the condition of the test plants as compared with that of the untreated plants was determined visually and scored on a scale of 0 to 100 percent where 0 corresponds to no injury or growth inhibition and 100 corresponds to complete kill.
as §6

The test system of assay [6] is DIGSA (Digitaria sanguinalis (L.) Scop., large crabgrass). In words: Example I postemergence foliar-applied mixtures, direct seeded rice weeds, greenhouse: DIGSA. Conditions: glyphosate IPA salt (Durango) alone, 377 gae/ha. As for the experimental part:
as §1, §2, §3, §4, §5, §6

[7] abbreviates: Compound A n-Butyl Ester alone, 16 gae/ha.
The mark [8] stands for this setting: glyphosate IPA salt (Durango) alone, 377 gae/ha.
The mark [9] stands for this setting: glyphosate IPA salt (Glyphomax) alone, 124.5 gae/ha.
Where [10] appears, read: glyphosate IPA salt (Glyphomax) alone, 249 gae/ha.
[11] abbreviates: glyphosate IPA salt (Rodeo) alone, 105 gae/ha.
Setting [12] is: glyphosate IPA salt (Rodeo) alone, 210 gae/ha.

For `CCCCOC(=O)c1nc(-c2ccc(Cl)c(OC)c2F)c(F)c(N)c1Cl` [Compound A n-Butyl Ester], the “Visual Weed Control (%) - 20 DAA IPOHE Obs” value in assay [1] (setting [7]) was 15%. Moreover, the “Visual Weed Control (%) - 20 DAA ECHCG Obs” value in assay [2] (setting [7]) came out at 65%. Also, the “Visual Weed Control (%) - 20 DAA LEFCH Obs” value in assay [3] (setting [7]) turned out to be 10%.
Regarding `O=C(O)CNCP(=O)(O)O` [Glyphosate isopropylamine salt, N-(phosphonomethyl)glycine, reference compound], the results for the “Visual Weed Control (%) - 21 DAA IPOHE Obs” value in assay [1] (105 gae/ha), in assay [1] (210 gae/ha) and in assay [1] (420 gae/ha) were 15%, 25% and 55%, respectively. The “Visual Weed Control (%) - 20 DAA ECHCG Obs” value in assay [2] (setting [8]) was 38%. The “Visual Weed Control (%) - 21 DAA ECHCG Obs” value in assay [2] (124.5 gae/ha) and in assay [2] (249 gae/ha) was 0% throughout. Moreover, the “Visual Weed Control (%) - 21 DAA ECHCO Obs” value in assay [4] (setting [9]) came out at 10%; in assay [4] (setting [10]) it was 20%; in assay [4] (setting [11]), 0%; in assay [4] (setting [12]), 0%. Also, the “Visual Weed Control (%) - 20 DAA LEFCH Obs” value in assay [3] (setting [8]) was determined as 88%. The “Visual Weed Control (%) - 21 DAA LEFCH Obs” value was determined as 0% in assay [3] (setting [9]); 45% in assay [3] (setting [10]); 25% in assay [3] (setting [11]); 75% in assay [3] (setting [12]); 90% in assay [3] (glyphosate IPA salt (Rodeo) alone, 420 gae/ha). For the same compound, the “Visual Weed Control (%) - 21 DAA SCPMA Obs” value in assay [5] (210 gae/ha) and in assay [5] (420 gae/ha) was 0% each time. In assay [6], the “Visual Weed Control (%) - 20 DAA DIGSA Obs” value is 10%.
